Read-outs that look alike come from different tables or passages of the source. *1 amine or outer side, *2 acyl side, *3 side chain or, on linkers, in order; H or OH if unused. Where a SMILES comes first, the peptide text is derived from it. Where no end group is shown, it is not given here. Side-chain parts run from the residue outwards. [ ]: non-standard residue; d: D form. The star is where a group is joined. X1 = 5‑aminoethylsulfonamide isoquinoline, O=S(=O)(NCCN*)c1cccc2cnccc12; Isoquinoline5sulfonyl = O=S(=O)(c1cccc2cnccc12)*; X2 = O=C(OCC(Cc1ccccc1)N[*:1])[*:2]; Ethylenediamine = C(CN[*:2])N[*:1]; hLeu = CC(C)CC[C@H](N)C(=O)O; Nle = CCCC[C@H](N)C(=O)O; Orn = NCCC[C@H](N)C(=O)O; Dab = NCC[C@H](N)C(=O)O; Nva = CCC[C@H](N)C(=O)O; Abu = CC[C@H](N)C(=O)O; Dap = NC[C@H](N)C(=O)O; GlyNH2 = aminoglycine; Ava = NCCCCC(=O)O; βAla = NCCC(=O)O
What was measured:
PKA = molecular target: T1, PKA (Bos taurus, UniProt P00517); assay: In vitro PKA kinase activity assay (kemptide / SPA beads); assay type: biochemical; parameters: % Inhibition PKA: concentration or dose not given beside the values; conditions: for inhibition at 1 µM / PKA-kinase Assay 1, % inhibition of kinase activity / PKA-kinase Assay 2, % inhibition of kinase activity: 1 μM compound concentration; for % Inhibition PKA: plate screening;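 on all read-outs here: Cell-free assay of purified PKA catalytic subunit phosphorylating the 7-mer kemptide substrate, run in MOPS buffer with magnesium acetate and BSA, with blank wells lacking enzyme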
T1 construct: purchased Promega

PKB = molecular target: T2, PKB (Homo sapiens, UniProt P31749); assay: PKB in vitro kinase activity assay (soluble His-HA-PKB / SPA bead screening); assay type: biochemical; parameters: % Inhibition PKB I / % Inhibition PKB II: concentration or dose not given beside the values; conditions: for inhibition at 1 µM / PKB-kinase (spa) Assay 1, % inhibition of kinase activity / PKB-kinase (spa) Assay 2, % inhibition of kinase activity: 1 μM compound concentration; for % Inhibition PKB I / % Inhibition PKB II: plate screening
T2 construct: His; HA; made in house

[1] = Assay 1, read-out: PKA-kinase Assay 1, % inhibition of kinase activity
[2] = Assay 2, read-out: PKA-kinase Assay 2, % inhibition of kinase activity
[3] = Table 1, most preferred compounds, read-out: IC50 PKA
[4] = Assay 1, read-out: PKB-kinase (spa) Assay 1, % inhibition of kinase activity
[5] = Assay 2, read-out: PKB-kinase (spa) Assay 2, % inhibition of kinase activity
[6] = Table 1, most preferred compounds, read-out: IC50 PKB
[7] = Table 6, most active compounds from plate TY-60020, read-out: IC50 PKA
[8] = Table 6, most active compounds from plate TY-60020, read-out: IC50 PKB
[9] = Table 3, linear 7-mer peptides, read-out: Activity PKA
[10] = Table 3, linear 7-mer peptides, read-out: Activity PKB

T2 sequence (P31749 whole entry, species assumed): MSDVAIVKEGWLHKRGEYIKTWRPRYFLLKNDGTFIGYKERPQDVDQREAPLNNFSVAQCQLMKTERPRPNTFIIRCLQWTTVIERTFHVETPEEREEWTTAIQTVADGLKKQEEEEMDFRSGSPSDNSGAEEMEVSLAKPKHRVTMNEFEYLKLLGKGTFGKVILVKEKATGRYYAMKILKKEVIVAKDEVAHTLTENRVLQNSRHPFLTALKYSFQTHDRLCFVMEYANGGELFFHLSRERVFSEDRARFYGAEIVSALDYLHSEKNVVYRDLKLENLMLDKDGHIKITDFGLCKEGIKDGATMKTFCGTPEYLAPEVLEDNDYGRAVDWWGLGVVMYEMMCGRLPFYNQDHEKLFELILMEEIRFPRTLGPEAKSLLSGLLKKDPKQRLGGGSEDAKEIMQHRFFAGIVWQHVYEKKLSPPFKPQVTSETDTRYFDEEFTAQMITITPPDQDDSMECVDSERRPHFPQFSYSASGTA

CCCC[C@H](NC(=O)[C@H](CCCNC(=N)N)NC(=O)[C@@H]1CCCN1C(=O)[C@@H](N)CCCNC(=N)N)C(=O)N[C@@H](CCC(=O)NCC(=O)NCCNS(=O)(=O)c1cccc2cnccc12)C(=O)N[C@@H](CCN)C(=O)N[C@@H](CCC(C)C)C(N)=O [60020-58, Arg-Pro-Arg-Nle-Glu-(Gly-5-aminoethylsulfonamide)-Dab-Hol] (H-RPR[Nle]E([Gly-Ethylenediamine-Isoquinoline5sulfonyl])[Dab][hLeu]-NH2)
inhibition at 1 µM (PKA; [1]): 98%
inhibition at 1 µM (PKA; [2]): 99%
IC50 (PKA; [3]): 0.05 µM
inhibition at 1 µM (PKB; [4]): 89%
inhibition at 1 µM (PKB; [5]): 93%
IC50 (PKB; [6]): 0.12 µM

CCCC[C@H](NC(=O)[C@H](CCCNC(=N)N)NC(=O)[C@@H]1CCCN1C(=O)[C@@H](N)CCCNC(=N)N)C(=O)N[C@@H](CCC(=O)NCCC(=O)NCCNS(=O)(=O)c1cccc2cnccc12)C(=O)N[C@@H](CCC)C(=O)N[C@@H](Cc1ccccc1)C(N)=O [60020-95] (H-RPR[Nle]E([βAla-Ethylenediamine-Isoquinoline5sulfonyl])[Nva]F-NH2; N-terminus assumed)
IC50 (PKA; [7]): 2 µM
inhibition at 1 µM (PKB; [4]): 46%
inhibition at 1 µM (PKB; [5]): 90%
IC50 (PKB; [8]): 3.3 µM

CC(C)CC[C@H](NC(=O)[C@H](CCN)NC(=O)[C@H](CCC(=O)NCC(=O)NCCNS(=O)(=O)c1cccc2cnccc12)NC(=O)[C@H](CCCN)NC(=O)[C@H](CCCNC(=N)N)NC(=O)[C@@H]1CCCN1C(=O)[C@@H](N)CCCNC(=N)N)C(N)=O [60020-42, Arg-Pro-Arg-Orn-Glu-(Gly-5-aminoethylsulfonamide)-Dab-Hol] (H-RPR[Orn]E([Gly-Ethylenediamine-Isoquinoline5sulfonyl])[Dab][hLeu]-NH2)
inhibition at 1 µM (PKA; [1]): 99%
inhibition at 1 µM (PKA; [2]): 99%
IC50 (PKA; [3]): 0.05 µM
inhibition at 1 µM (PKB; [4]): 80%
inhibition at 1 µM (PKB; [5]): 86%
IC50 (PKB; [6]): 0.11 µM

CCC[C@H](NC(=O)[C@H](CCCNC(=N)N)NC(=O)[C@@H]1CCCN1C(=O)[C@@H](N)CCCNC(=N)N)C(=O)N[C@@H](CO)C(=O)N[C@@H](C)C(=O)N[C@@H](Cc1ccccc1)C(N)=O [60002-38] (H-RPR[Nva]SAF-NH2; N-terminus and C-terminus assumed)
IC50 (PKA; Table 10, accurate IC50 curve, peptide moiety alone, read-out: IC50 μM PKA): 80 µM
% Inhibition PKA (PKA; peptide moiety alone): −2%
IC50 (PKB; Table 10, accurate IC50 curve, peptide moiety alone, read-out: IC50 μM PKB): 18 µM
% Inhibition PKB I (PKB; peptide moiety alone): 43%

C[C@@H](O)[C@H](NC(=O)[C@H](CCCNC(=N)N)NC(=O)[C@@H]1CCCN1C(=O)[C@@H](N)CCCNC(=N)N)C(=O)N[C@@H](CCC(=O)NCCCCC(=O)NCCNS(=O)(=O)c1cccc2cnccc12)C(=O)N[C@@H](CO)C(=O)N[C@@H](Cc1ccccc1)C(N)=O [compound 6090] (H-RPRTE([Ava-Ethylenediamine-Isoquinoline5sulfonyl])SF-NH2; N-terminus assumed)
IC50 (PKA; chimeric PTR compounds (peptide conjugated to isoquinoline small molecule), read-out: PKA IC50): 0.6 µM
IC50 (PKB; chimeric PTR compounds (peptide conjugated to isoquinoline small molecule), read-out: PKB IC50): 5.6 µM

CC(C)CC[C@H](NC(=O)[C@H](C)NC(=O)[C@H](CO)NC(=O)[C@@H](NC(=O)[C@H](CCCNC(=N)N)NC(=O)[C@@H]1CCCN1C(=O)[C@@H](N)CCCNC(=N)N)[C@@H](C)O)C(N)=O [TY 60002-50, Arg-Pro-Arg-Thr-Ser-Ala-Hol] (H-RPRTSA[hLeu]-NH2; N-terminus and C-terminus assumed)
IC50 (PKA; [9]): > 40 µM
IC50 (PKB; [10]): 5 µM

60020-11: Arg-Pro-Arg-Orn-Glu(5-aminoethylsulfonamide isoquinoline)-Orn-Phe (RPR[Orn]E(X1)[Orn]F)
PKA-kinase Assay 1, % inhibition of kinase activity (PKA; Assay 1): 95%
PKA-kinase Assay 2, % inhibition of kinase activity (PKA; Assay 2): 96%
PKB-kinase (spa) Assay 1, % inhibition of kinase activity (PKB; Assay 1): 58%
PKB-kinase (spa) Assay 2, % inhibition of kinase activity (PKB; Assay 2): 52%

60020-3: Arg-Pro-Arg-Dap-Glu(5-aminoethylsulfonamide isoquinoline)-Orn-Phe (RPR[Dap]E(X1)[Orn]F)
PKA-kinase Assay 1, % inhibition of kinase activity (PKA; Assay 1): 96%
PKA-kinase Assay 2, % inhibition of kinase activity (PKA; Assay 2): 96%
PKB-kinase (spa) Assay 1, % inhibition of kinase activity (PKB; Assay 1): 52%
PKB-kinase (spa) Assay 2, % inhibition of kinase activity (PKB; Assay 2): 60%

CCCC[C@H](NC(=O)[C@H](CCCNC(=N)N)NC(=O)[C@@H]1CCCN1C(=O)[C@@H](N)CCCNC(=N)N)C(=O)N[C@@H](CCC(=O)NCC(=O)NCCNS(=O)(=O)c1cccc2cnccc12)C(=O)N[C@@H](CCCN)C(=O)N[C@@H](Cc1ccccc1)C(N)=O [60020-59] (H-RPR[Nle]E([Gly-Ethylenediamine-Isoquinoline5sulfonyl])[Orn]F-NH2; N-terminus assumed)
inhibition at 1 µM (PKA; [1]): 92%
inhibition at 1 µM (PKA; [2]): 93%
IC50 (PKA; [7]): 0.2 µM
inhibition at 1 µM (PKB; [4]): 62%
inhibition at 1 µM (PKB; [5]): 75%
IC50 (PKB; [8]): 0.3 µM

CC[C@H](NC(=O)[C@H](CO)NC(=O)[C@@H](NC(=O)[C@H](CCCNC(=N)N)NC(=O)[C@@H]1CCCN1C(=O)[C@@H](N)CCCNC(=N)N)[C@@H](C)O)C(=O)NC(COC(=O)NCCNS(=O)(=O)c1cccc2cnccc12)Cc1ccccc1 (stereo partly drawn) [PTR 6013] (H-RPRTS[Abu][X2]-{Ethylenediamine-Isoquinoline5sulfonyl})
IC50 (PKA; Table 2, chimeric compounds, read-out: Activity PKA): 1 µM
IC50 (PKB; Table 2, chimeric compounds, read-out: Activity PKB): 3 µM

N=C(N)NCCC[C@H](NC(=O)[C@@H]1CCCN1C(=O)[C@@H](N)CCCNC(=N)N)C(=O)N[C@@H](CN)C(=O)N[C@@H](CCC(=O)NCCC(=O)NCCNS(=O)(=O)c1cccc2cnccc12)C(=O)N[C@@H](CCCN)C(=O)N[C@@H](Cc1ccccc1)C(N)=O [60020-67] (H-RPR[Dap]E([βAla-Ethylenediamine-Isoquinoline5sulfonyl])[Orn]F-NH2; N-terminus assumed)
IC50 (PKA; [7]): 0.25 µM
inhibition at 1 µM (PKB; [4]): 51%
inhibition at 1 µM (PKB; [5]): 68%
IC50 (PKB; [8]): 1.08 µM

60005-75 (RPR[Nva]S[GlyNH2][hLeu]) [Compound 60005-75]
% Inhibition PKA (PKA; peptide moiety alone): −4%
% Inhibition PKB I (PKB; peptide moiety alone): 70%
% Inhibition PKB II (PKB; peptide moiety alone): 70%

60005-84 (RPR[Nva]TA[hLeu]) [Compound 60005-84]
% Inhibition PKA (PKA; peptide moiety alone): 7%
% Inhibition PKB I (PKB; peptide moiety alone): 39%
% Inhibition PKB II (PKB; peptide moiety alone): 48%

60020-33: Arg-Pro-Arg-Dap-Glu(Gly-5-aminoethylsulfonamide isoquinoline)-Dab-Phe (RPR[Dap]E([Gly-X1])[Dab]F)
PKA-kinase Assay 1, % inhibition of kinase activity (PKA; Assay 1): 98%
PKA-kinase Assay 2, % inhibition of kinase activity (PKA; Assay 2): 98%
PKB-kinase (spa) Assay 1, % inhibition of kinase activity (PKB; Assay 1): 63%
PKB-kinase (spa) Assay 2, % inhibition of kinase activity (PKB; Assay 2): 69%

60020-38: Arg-Pro-Arg-Dap-Glu(Gly-5-aminoethylsulfonamide isoquinoline)-Ala-Hol (RPR[Dap]E([Gly-X1])A[hLeu])
PKA-kinase Assay 1, % inhibition of kinase activity (PKA; Assay 1): 98%
PKA-kinase Assay 2, % inhibition of kinase activity (PKA; Assay 2): 99%
PKB-kinase (spa) Assay 1, % inhibition of kinase activity (PKB; Assay 1): 49%
PKB-kinase (spa) Assay 2, % inhibition of kinase activity (PKB; Assay 2): 49%

CC(C)CC[C@H](NC(=O)[C@H](CN)NC(=O)[C@H](CO)NC(=O)[C@@H](NC(=O)[C@H](CCCNC(=N)N)NC(=O)[C@@H]1CCCN1C(=O)[C@@H](N)CCCNC(=N)N)[C@@H](C)O)C(N)=O [TY 60002-96, Arg-Pro-Arg-Thr-Ser-Dap-Hol] (H-RPRTS[Dap][hLeu]-NH2; N-terminus and C-terminus assumed)
IC50 (PKA; [9]): > 40 µM
IC50 (PKB; [10]): 5 µM
